Laboratory results as given in patent US20110112299A1, “TETRACYCLIC COMPOUND” (KYOWA HAKKO KIRIN CO., LTD., priority 2008, published 2011).

Legend:
[1] = system: transcription-promoting activity via the glucocorticoid receptor (A549/MMTV-LTR cells); format: cell-based; conditions: at a concentration of 300 nmol/L; relative to dexamethasone
Protocol: A pGL4.14 plasmid (Promega, product number: AY864928) having a cloned MMTV-LTR fragment upstream of the luciferase gene (−200 to +100 relative to the transcription initiation site) was introduced into A549 cells, and the obtained strain which is constitutively resistant to a selective antibiotic hygromycin B (A549/MMTV-LTR) was used for evaluation. The A549/MMTV-LTR cells were transferred to a 96-well plate (25000 cells/well) and were cultured overnight. […] Next, 20 μL of the test compound diluted to 5-fold of the desired concentration with F-12 medium or 20 μL of 4 μmol/L dexamethasone was added thereto, and the mixture was incubated under 5% CO2 at 37° C. for 6 hours. To each well, 50 μL of a luminescence reagent (Promega, product number: E2550 or E2650) was added, and the mixture was stirred to dissolve the cells, and the luciferase activity was measured by a plate reader (PerkinElmer, TopCount).
MMTV activity (%)=100×(luminescence amount in the presence of the compound−luminescence amount in the absence of the compound)/(luminescence amount in the presence of dexamethasone−luminescence amount in the absence of the compound)

[2] = system: IL-1β induced IL-6 production (A549 cells); assay: Inhibition assay for IL-1β induced IL-6 production in A549 cells (Test Example 3); format: cell-based, human; conditions: Homo sapiens, at a concentration of 100 nmol/L, IL-1β stimulation, relative to dexamethasone, read-out: IL-6 production inhibitory activity
Protocol: A549 cells cultured in F-12 medium supplemented with 10% bovine serum for 3 to 5 days were transferred to a 96-well plate (50000 cells/well) and then were cultured overnight. […] After the medium was removed by suction, 60 μL of F-12 medium was added to each well, and 20 μL of the test compound diluted to 5-fold of the desired concentration with F-12 medium or 20 μL of 4 μmol/L dexamethasone was added thereto. The test compound and the dexamethasone used here were prepared beforehand by dissolving in dimethyl sulfoxide (DMSO) and diluting with F-12 medium so that the final concentration of DMSO became 0.1% v/v or lower. After 30-minute incubation under 5% CO2 atmosphere at 37° C., 20 μL of 4 nmol/L IL-1β diluted with F-12 medium was added to each well, and then incubation was performed under a 5% CO2 atmosphere at 37° C. for 12 to 18 hours. The 96-well plate was centrifuged at 300×g at 4° C. for 5 minutes, and then the culture supernatant was collected for use as a sample for IL-6 measurement. The IL-6 produced in the culture supernatant was quantified by the ELISA method (R&D Systems, product number: DY206, DouSet ELISA Development System Human IL-6), and the production inhibition rate was calculated by the following formula. […]

[3] = molecular target: T1, recombinant human glucocorticoid receptor (Homo sapiens, UniProt P04150); assay: Human glucocorticoid receptor assay (2) (fluorescence polarization, Test Example 5); format: binding; conditions: for selectivity for human glucocorticoid receptor over progesterone receptor: from the results of Test Examples 5 and 6
T1 construct: purchased Panvera/Invitrogen P2812 (kit P2893)
T1 sequence (P04150 1-777): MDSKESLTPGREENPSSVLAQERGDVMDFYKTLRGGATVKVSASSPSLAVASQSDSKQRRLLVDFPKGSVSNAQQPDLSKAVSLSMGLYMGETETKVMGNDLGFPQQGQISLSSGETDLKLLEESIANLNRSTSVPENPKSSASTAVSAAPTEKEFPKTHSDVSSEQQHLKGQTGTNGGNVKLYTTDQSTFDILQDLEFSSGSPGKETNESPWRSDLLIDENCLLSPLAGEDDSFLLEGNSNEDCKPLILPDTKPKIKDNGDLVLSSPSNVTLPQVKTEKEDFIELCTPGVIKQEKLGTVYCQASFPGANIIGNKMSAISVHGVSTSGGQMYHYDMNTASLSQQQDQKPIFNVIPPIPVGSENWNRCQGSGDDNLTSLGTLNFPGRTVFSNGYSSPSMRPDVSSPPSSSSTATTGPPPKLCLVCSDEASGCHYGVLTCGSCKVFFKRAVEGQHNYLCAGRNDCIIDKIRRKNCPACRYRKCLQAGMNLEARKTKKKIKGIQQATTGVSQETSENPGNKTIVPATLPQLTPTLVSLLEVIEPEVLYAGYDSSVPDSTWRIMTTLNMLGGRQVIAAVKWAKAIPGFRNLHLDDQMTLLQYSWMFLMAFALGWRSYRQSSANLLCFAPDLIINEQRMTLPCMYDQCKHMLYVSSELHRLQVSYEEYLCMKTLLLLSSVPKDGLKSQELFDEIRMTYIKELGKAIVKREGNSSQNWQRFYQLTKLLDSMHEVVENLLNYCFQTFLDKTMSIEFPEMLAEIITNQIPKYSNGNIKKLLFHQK
Protocol: In this assay, a fluorescence polarization assay kit (Panvera/Invitrogen, product number: P2893) was used. The recombinant human glucocorticoid receptor (product number: P2812), the Fluoromore (trademark)-labeled dexamethasone (GS Green, product number: P2813), the stabilizing peptide solution (product number: P2815), and the basic buffer solution (product number: P2814) which were used in the assay kit had been stored at −80° C. until used. A buffer solution for the assay was prepared by adding the basic buffer solution (10 fold dilution), the stabilizing peptide solution (10 fold dilution), and 1 mol/L DTT (dithiothreitol) (1000 fold dilution to give a final concentration of 1 mmol/L).
The assay was performed as follows. The test compound was diluted to 2-fold of the desired concentration with the buffer solution for the assay, and 16 μL of that was added to each well. Next, the Fluoromore (trademark)-labeled dexamethasone was diluted with the buffer solution for the assay so as to be 4 nmol/L, and 8 μL of that was added to each well. Further, the recombinant human glucocorticoid receptor was diluted with the buffer solution for the assay so as to be 16 nmol/L, and 8 μL of that was added to each well. After stirring the mixture, the mixture was incubated under a light-shielded condition at room temperature for 2 hours or more. The fluorescence polarization value of each well was measured using a plate reader (PerkinElmer, Fusion or Envision). To a negative control group, the compound was not added. To a positive control group, dexamethasone was added so as to give a final concentration of 1 μmol/L. The glucocorticoid receptor binding inhibitory rate (%) was calculated by the following formula.
Glucocorticoid receptor binding inhibitory rate (%)=100×[1−(fluorescence polarization value of test compound solution−fluorescence polarization value of positive control solution)/(fluorescence polarization value of negative control solution−fluorescence polarization value of positive control solution)]

Compound | MMTV activity [1] [%] | selectivity for human glucocorticoid receptor over progesterone receptor [3] | also measured
CC/C(=C1\c2cc3cnn(C(C)C)c3cc2COc2ccccc21)c1cccc(NS(C)(=O)=O)c1 [Compound 8, (Z)-5-{1-[3-(methanesulfonamide)phenyl]propylidene}-1-isopropyl-5,11-dihydro-1H-indazolo[5,6-e]benzo[b]oxepin] | 22 |  | 
CC/C(C(=O)Nc1nccs1)=C1\c2cc3cnn(-c4ccc(F)cc4)c3cc2COc2ccccc21 [Compound 89, (Z)-1-(4-fluorophenyl)-5-{1-[(thiazole-2-yl)aminocarbonyl]propylidene}-5,11-dihydro-1H-indazolo[5,6-e]benzo[b]oxepin] |  |  | inhibition at 0.1 µM [2]: ≥ 80%; inhibition at 0.1 µM ([3]; at a concentration of 100 nmol/L, read-out: glucocorticoid receptor binding inhibitory activity): ≥ 80%
CC/C(=C1\c2cc3cnn(C(C)C)c3cc2COc2ncccc21)c1cccc(NS(C)(=O)=O)c1 [Compound 25, (Z)-1-isopropyl-5-{1-[3-(methanesulfonamide)phenyl]propylidene}-5,11-dihydro-1H-indazolo[5,6-e]pyrido-[2,3-b]oxepin] |  | selective binding activity to human glucocorticoid receptors | 
CC/C(=C1\c2cc3cnn(-c4ccc(F)cc4)c3cc2COc2ncccc21)c1cccc(NS(C)(=O)=O)c1 [Compound 43, (Z)-1-(4-fluorophenyl)-5-{1-[3-(methanesulfonamide)phenyl]-propylidene}-5,11-dihydro-1H-indazolo[5,6-e]pyrido[2,3-b]oxepin] |  | selective binding activity to human glucocorticoid receptors | 
C[C@@H]1C[C@H]2[C@@H]3CCC4=CC(=O)C=C[C@]4(C)[C@@]3(F)[C@@H](O)C[C@]2(C)[C@@]1(O)C(=O)CO [dexamethasone, reference compound] | ≥ 100 |  | 
CC/C(=C1\c2cc3cnn(C4CC4)c3cc2COc2ncccc21)c1cccc(NS(C)(=O)=O)c1 [Compound 34, (Z)-1-cyclopropyl-5-{1-[3-(methanesulfonamide)phenyl]propylidene}-5,11-dihydro-1H-indazolo[5,6-e]pyrido[2,3-b]oxepin] | 25 | selective binding activity to human glucocorticoid receptors | 
C[C@]12C=CC(=O)C=C1CC[C@@H]1[C@@H]2[C@@H](O)C[C@@]2(C)[C@H]1CC[C@]2(O)C(=O)CO [prednisolone, reference compound] | ≥ 80 |  | 
